Measurements published in patent US9096560B2, “5-heterocyclylalkyl-3-hydroxy-2-phenylcyclopent-2-enones as herbicides” (Syngenta Limited, priority 2008, dated 2015).

Key:
Type in all cases: in vivo
[1] = test system: Alopecurus myosuroides (ALOMY); experiment: Example A post-emergence herbicidal test, ALOMY; conditions: rate 250 g/ha, evaluated 14 or 15 days after spraying
Description: (§1) Seeds of a variety of test species were sown in standard soil in pots. After cultivation for one day (pre-emergence) or after 10 days cultivation (post-emergence) under controlled conditions in a glasshouse, the plants were sprayed with an aqueous spray solution derived from the formulation of the technical active ingredient in 0.6 ml acetone and 45 ml formulation solution containing 10.6% Emulsogen EL (Registry number 61791-12-6), 42.2% N-methylpyrrolidone, 42.2% dipropylene glycol monomethyl ether (Registry number 34590-94-8) and 0.2% X-77 (Registry number 11097-66-8). The test plants were then grown in a greenhouse under optimum conditions until, 14 or 15 days later for post-emergence and 19 or 20 days for pre-emergence, the test was evaluated (100=total damage to plant; 0=no damage to plant). Alopecurus myosuroides (ALOMY), Avena fatua (AVEFA), Lolium perenne (LOLPE), Setaria faberi (SETFA), Digitaria sanguinalis (DIGSA), Echinochloa crus-galli (ECHCG) Post-Emergence Activity

Avena fatua (AVEFA) [2] = experiment: Example A post-emergence herbicidal test, AVEFA; conditions: rate 250 g/ha, evaluated 14 or 15 days after spraying
Description: as §1

Lolium perenne (LOLPE) [3] = experiment: Example A post-emergence herbicidal test, LOLPE; conditions: rate 250 g/ha, evaluated 14 or 15 days after spraying
Description: as §1

Setaria faberi (SETFA) = experiment: Example A post-emergence herbicidal test, SETFA; conditions: rate 250 g/ha, evaluated 14 or 15 days after spraying
Description: as §1

[4] = test system: Digitaria sanguinalis (DIGSA); experiment: Example A post-emergence herbicidal test, DIGSA; conditions: rate 250 g/ha, evaluated 14 or 15 days after spraying
Description: as §1

[5] = test system: Echinochloa crus-galli (ECHCG); experiment: Example A post-emergence herbicidal test, ECHCG; conditions: rate 250 g/ha, evaluated 14 or 15 days after spraying
Description: as §1

Lolium perenne (LOLPE) [6] = experiment: Example B pre-emergence herbicidal test, LOLPE; conditions: Lolium perenne, 312 h, rate 250 g/ha, evaluated after 13 days, 100=total damage to plant, 0=no damage to plant
Method in brief: (§2)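 Plants were rated 13 days after treatment, 0 = no damage to 100 = total damage. They were grown in a glasshouse at 24/16 °C, 14 h light, 65% humidity and watered twice daily. Pre-emergence spray was applied one day after sowing, formulated in acetone/water 50:50 with 0.5% Tween 20.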

[7] = test system: Alopecurus myosuroides (ALOMY); experiment: Example B pre-emergence herbicidal test, ALOMY; conditions: Alopecurus myosuroides, 312 h, rate 250 g/ha, evaluated after 13 days, 100=total damage to plant, 0=no damage to plant
Method in brief: as §2

[8] = test system: Echinochloa crus-galli (ECHCG); experiment: Example B pre-emergence herbicidal test, ECHCG; conditions: Echinochloa crus-galli, 312 h, rate 250 g/ha, evaluated after 13 days, 100=total damage to plant, 0=no damage to plant
Method in brief: as §2

Avena fatua (AVEFA) [9] = experiment: Example B pre-emergence herbicidal test, AVEFA; conditions: Avena fatua, 312 h, rate 250 g/ha, evaluated after 13 days, 100=total damage to plant, 0=no damage to plant
Method in brief: as §2

Lolium perenne (LOLPE) [10] = experiment: Example B post-emergence herbicidal test, LOLPE; conditions: Lolium perenne, 312 h, rate 250 g/ha, evaluated after 13 days, scale 0-100, read-out: Post-emergence activity LOLPE (100=total damage to plant; 0=no damage to plant)
Method in brief: (§3)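 Plants grown 8 days in glasshouse (24/16 °C day/night, 14 h light, 65% humidity), then sprayed with aqueous solution from acetone/water (50:50) formulation with 0.5% Tween 20. Damage scored 13 days later on a 0–100 scale (100 = total damage).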

[11] = test system: Alopecurus myosuroides (ALOMY); experiment: Example B post-emergence herbicidal test, ALOMY; conditions: Alopecurus myosuroides, 312 h, rate 250 g/ha, evaluated after 13 days, scale 0-100, read-out: Post-emergence activity ALOMY (100=total damage to plant; 0=no damage to plant)
Method in brief: as §3

[12] = test system: Echinochloa crus-galli (ECHCG); experiment: Example B post-emergence herbicidal test, ECHCG; conditions: Echinochloa crus-galli, 312 h, rate 250 g/ha, evaluated after 13 days, scale 0-100, read-out: Post-emergence activity ECHCG (100=total damage to plant; 0=no damage to plant)
Method in brief: as §3

Avena fatua (AVEFA) [13] = experiment: Example B post-emergence herbicidal test, AVEFA; conditions: Avena fatua, 312 h, rate 250 g/ha, evaluated after 13 days, scale 0-100, read-out: Post-emergence activity AVEFA (100=total damage to plant; 0=no damage to plant)
Method in brief: as §3

[14] = test system: Winter Wheat variety 'Hereward'; experiment: Example C crop damage test on Winter Wheat, post-emergence, no safener; conditions: Triticum aestivum, 312 h, rate 250 g/ha, evaluated after 13 days, read-out: Winter Wheat (Hereward) damage (100=total damage to plant; 0=no damage to plant)
Description: Seeds of the Winter Wheat variety ‘Hereward’ were sown in standard soil in pots. After 8 days cultivation under controlled conditions in a glasshouse (at 24/16° C., day/night; 14 hours light; 65% humidity), the plants were sprayed with an aqueous spray solution derived from the formulation of the technical active ingredient in acetone/water (50:50) solution containing 0.5% Tween 20 (polyoxyethelyene sorbitan monolaurate, CAS RN 9005-64-5). The test plants were then grown in a glasshouse under controlled conditions in a glasshouse (at 24/16° C., day/night; 14 hours light; 65% humidity) and watered twice daily. After 13 days for pre and post-emergence, the test was evaluated (100=total damage to plant; 0=no damage to plant).

[15] = test system: Winter Wheat variety 'Hereward' seed treated with cloquintocet mexyl; experiment: Example C crop damage test on Winter Wheat seed treated with safener cloquintocet mexyl, post-emergence; conditions: rate 250 g/ha, seed treated with cloquintocet mexyl 0.5 grams per kilogram of dry seed, evaluated after 13 days
Description: Seeds of the Winter Wheat variety ‘Hereward’ were seed treated with a wettable powder formulation of the cereal herbicide safener, cloquintocet mexyl, at a rate of 0.5 grams per kilogram of dry seed prior to the initiation of glasshouse testing. One seed was sown per 1.5 inch plastic pot into a sandy loam soil at a depth of 1 cm, 8 days prior to application of the test compounds and was watered and grown under controlled conditions in a glasshouse (at 24/16° C., day/night; 14 hours light; 65% humidity). The plants were sprayed Post-emergence with an aqueous spray solution derived from the formulation of the technical active ingredient in acetone/water (50:50) solution containing 0.5% Tween 20 (polyoxyethelyene sorbitan monolaurate, CAS RN 9005-64-5). The test plants were then grown in a glasshouse under controlled conditions in a glasshouse (at 24/16° C., day/night; 14 hours light; 65% humidity) and watered twice daily. After 13 days for pre and post-emergence, the test was evaluated (100=total damage to plant; 0=no damage to plant).

Compound | Post-Emergence Activity ALOMY (100=total damage to plant; 0=no damage to plant) [1] | Post-Emergence Activity AVEFA (100=total damage to plant; 0=no damage to plant) (Avena fatua (AVEFA) [2]) | Post-Emergence Activity LOLPE (100=total damage to plant; 0=no damage to plant) (Lolium perenne (LOLPE) [3]) | Post-Emergence Activity SETFA (100=total damage to plant; 0=no damage to plant) (Setaria faberi (SETFA)) | Post-Emergence Activity DIGSA (100=total damage to plant; 0=no damage to plant) [4] | Post-Emergence Activity ECHCG (100=total damage to plant; 0=no damage to plant) [5] | pest or weed control at 250 g/ha (Lolium perenne (LOLPE) [6]) [%] | pest or weed control at 250 g/ha [7] [%] | pest or weed control at 250 g/ha [8] [%] | pest or weed control at 250 g/ha (Avena fatua (AVEFA) [9]) [%] | pest or weed control at 250 g/ha (Lolium perenne (LOLPE) [10]) [%] | pest or weed control at 250 g/ha [11] [%] | pest or weed control at 250 g/ha [12] [%] | pest or weed control at 250 g/ha (Avena fatua (AVEFA) [13]) [%] | crop damage to winter wheat at 250 g/ha [14] [%] | Winter Wheat (Hereward) + cloquintocet mexyl damage (100=total damage to plant; 0=no damage to plant) [15]
Cc1cc(C)c(C2=C(OC(=O)C(C)(C)C)CC(CC3CCOCC3)C2=O)c(C)c1 (stereo not shown) [Compound P5] | 100 | 100 | 100 | 80 | 70 | 100 | 100 | 100 | 100 | 80 | 100 | 100 | 100 | 90 | 60 | 30
Cc1cc(C)c(C2C(=O)CC(CC3CCOCC3)C2=O)c(C)c1 (stereo not shown) [Compound T4] | 100 | 90 | 100 | 90 | 90 | 100 | 100 | 100 | 100 | 90 | 100 | 100 | 100 | 100 | 70 | 40
Cc1cc(C)c(C2C(=O)CC(CC3CCOC3)C2=O)c(C)c1 (stereo not shown) [Compound T5] | 100 | 80 | 100 | 30 | 50 | 80 | 100 | 100 | 100 | 80 | 100 | 100 | 100 | 90 | 80 | 20
Cc1cc(-c2ccccc2)cc(C)c1C1C(=O)C/C(=C\C2CCOCC2)C1=O (stereo not shown) [Compound T66] |  |  |  |  |  |  | 80 | 90 | 100 | 80 | 60 | 90 | 100 | 90 | 50 | 20
